Measurements published in patent EP0565317A1, “(2-(2-hydroxy-2 phenylethylamino)ethoxy) phenyl derivatives, processes and intermediates for their preparation, pharmaceutical compositions containing them and their use as Beta-3-adrenoceptor agonists” (ZENECA LIMITED, priority 1992, dated 1993).

Experiments:
Rats [1] = assay: Heart rate in rats adapted to a thermoneutral environment; D500 dose and selectivity index (test b); conditions: selectivity index = ratio of D500 to ED50 in test (a)
Rats [2] = assay: Metabolic rate by closed-circuit oxygen consumption in fasted rats (test c); type: in vivo; conditions: at 1mgkg^-1 p.o.; determined for at least one hour after dosing
BAT mitochondria = assay: GDP binding in BAT mitochondria of cold-adapted rats as a measure of thermogenic activation (test a); type: in vivo; conditions: Rattus norvegicus, 1 h; oral; dose producing 50% of the effect of isoprenaline (1 mgkg-1) on GDP binding; rats sacrificed one hour after dosing

Compound | SI (Rats [1]; route not stated) | SI (Rats [1]; oral) | metabolic rate (Rats [2]) | ED50 (BAT mitochondria) [mg/kg]
CC(C)NCC(O)c1ccc(O)c(O)c1 (stereo not shown) [isoprenaline, reference compound] | 0.06 |  |  | 
COCC(=O)Cc1ccc(OCCNCC(O)c2ccccc2)cc1 (stereo not shown) [Example 1, 1-[4-(2-(2-Hydroxy-2-phenylethylamino)ethoxy)phenyl]-3-methoxypropan-2-one] |  | > 50 | 4.99 ml O2 min^-1 (Kg^0.75)^-1 | 0.98
